Source: patent US20100093861A1, “TREATMENT OF INSULIN RESISTANCE OR DISEASES ASSOCIATED WITH INSULIN RESISTANCE” (Stevia ApS, priority 2006, published 2010)

Test system: KKAy-mice
Test: In vivo study of plasma insulin, glucose, triglycerides and body weight in KKAy-mice after isosteviol (Example 3)
Procedure: Twenty six male KKAy-mice (Clea Japan, Tokyo, Japan), all 5 week-old, weighing 22-25 g were randomized to 2 groups and treated for 9 weeks with; • A: standard chow diet (control); • B: standard chow diet+20 mg/kg BW of Isosteviol (hereinafter ISV).
The composition of the standard chow diet dry matter was: Protein 24%, carbohydrate 71%, and Lipids 5%. ISV (ent-16-ketobeyeran-19-oic acid; Wako Pure Chemical Industries, Osaka, Japan) was incorporated in the mice food pellet and administered orally.
Hormones and lipids were measured from blood sample at start and end of the treatment period. Blood sample was taken from the tail of the animals on chilled tubes containing heparin/aprotinin and centrifuged (4000 g, 60 seconds, […]), and plasma was frozen for subsequent analysis of insulin, glucose and triglycerides. Fasting blood glucose, as well as BW, was measured before and after intervention.
Plasma blood glucose was determined using the glucose oxidase method (GOD-PAP,
Boehringer Mannheim, GmbH Germany). Insulin was determined by radioimmunoassay with a guinea pig antiporcine insulin antibody (PNILGP4, Novo Nordisk, Bagsvaerd, Denmark), and mono-[125I]-(Tyr A14) labelled human insulin (Novo Nordisk) as tracer and rat insulin (Novo Nordisk) as standard. We separated free and bound radioactivity using ethanol (Heding, 1972). Interassay and intra-assay variation was below 10%. […] Triglycerides was determined using colorimetric kits (Roche Diagnostics, Boehringer Mannheim, GmbH Germany). The fasting glucose-insulin index was calculated as the product of plasma insulin and plasma glucose ([plasma insulin ng/ml]×[plasma glucose mmol/l]/1000) and compared between groups as relative units (Chang et al., 2005).

[1] = ISV group of KKAy mice, age 5 weeks, before treatment
[2] = KKAy mice, 20 mg/kg BW in diet, after 9-week treatment

## C[C@@]12CC[C@@H]3[C@@](CC[C@H]4[C@@]3(C)CCC[C@@]4(C)C(=O)O)(CC1=O)C2 (single isomer, unassigned; ent-16) [ISV, ent-16-ketobeyeran-19-oic acid]
9 weeks treatment
  reduction of plasma insulin increase compared to the KKAy control: 62%
  reduction of the plasma TG increase in the KKAy: 74%
ISV group of KKAy mice before treatment, product of plasma insulin and plasma glucose
  glucose-insulin index at start of study: 8.6 unit
[1]
  plasma glucose at start of study: 8.9 mmol/L
  plasma insulin at start of study: 1.0 ng/mL
ISV group of KKAy mice, before treatment
  plasma TG level at age 5 week: 1.25 mmol/L
KKAy at 5 weeks as baseline, 9 weeks treatment
  reduction in plasma glucose compared to the increase for the KKAy: 59%
KKAy mice after 9 weeks treatment
  plasma TG level at age 14 weeks: 2.02 mmol/L
KKAy mice after 9 weeks treatment, product of plasma insulin and plasma glucose
  glucose-insulin index at the end of the study: 1596 unit
[2]
  plasma glucose at the end of the study: 16.2 mmol/L
  plasma insulin at the end of the study: 80.9 ng/mL
KKAy mice, 20 mg/kg BW, 9 weeks, KKAy control 2.8 fold
  fold increase of plasma glucose during study period: 1.8 fold
KKAy mice, 20 mg/kg BW, 9 weeks, KKAy control 266 fold
  fold increase of plasma insulin during study period: 81 fold
KKAy mice, 9 weeks treatment, KKAy control 192%
  increase of TG level at age 14 weeks compared to age 5 week: 62%
KKAy mice, vs. KKAy control
  reduction in weight at the end of the 9 week treatment period: 13%
KKAy mice, KKAy control 38.6 g
  body weight after 5 weeks: 29.9 g
KKAy mice, KKAy control 41.6 g
  body weight after 9 weeks treatment: 36.3 g
